Measured values as given in PubChem BioAssay AID179 (DTP/NCI, 2004).
Activity calls are given as the source filed them.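 The calls were made as follows: active = compounds giving half or more protection of infected cells from virus-caused growth loss, again on retest; inactive = the rest.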

System: CEM cells HIV-1 protection, formazan growth assay
Assay: NCI AIDS Antiviral Assay
Details: for IC50: measured here: growth of uninfected CEM cells
Summary of the method: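 Five concentrations of each compound were applied to infected and uninfected human CEM cells. Protection from HIV-1 was judged from growth measured with a soluble formazan assay.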

Row | SMILES | EC50 [µM] | IC50 [µM] | outcome
1 | Cc1ccc(CS(=O)C(Cl)(Cl)c2ccc(C)cc2)cc1 (stereo not given) | > 41.7 | 15.5 | 
2 | Cc1nn(C(=O)c2ccccc2O)c2c1C(c1ccccc1)SC(N)=N2 (stereo not given) | > 2 | 0.417 | 
3 | CC(=O)O[C@H]1CC[C@@]2(C)C(=CC[C@H]3C(CC#N)[C@@](C)(C#N)CCC32)C1 (stereo not given in full) |  |  | inactive
4 | Cn1c2c(c3ccccc3c1=O)C(=O)c1ccccc1-2 | > 14.5 | 7.41 | 
5 | CC(C1CCCC1=O)C1CCCC1=O (stereo not given) |  |  | inactive
6 | N#CC1=C(N)n2c(s/c(=C\c3ccc(Cl)cc3)c2=O)=C(c2nc3ccccc3[nH]2)C1c1ccc(Cl)cc1 (stereo not given) | > 5.01 | > 5.01 | 
7 | O=c1cc(C(F)(F)F)c2cc3c(cc2o1)NCCC3 | > 9.77 | > 9.77 | 
8 | O=C(CCc1cc(-c2ccco2)n(-c2ccc([N+](=O)[O-])cc2[N+](=O)[O-])n1)Nc1ccccc1 | > 41.7 | > 41.7 | 
9 | OC1COC2CC(Nc3ccccn3)OC12 (stereo not given) | > 200 | > 200 | 
10 | N#CCC(=O)NCCc1c[nH]c2ccccc12 | > 200 | > 200 | 
11 | CCC1C(C(=O)Nc2ccccc2C)=C(C)NC(C)=C1c1ccccc1C (stereo not given) | > 186 | > 186 | 
12 | O=S(=O)(O)C(F)(F)C(F)(F)C(F)(F)C(F)(F)C(F)(F)C(F)(F)C(F)(F)C(F)(F)F | > 200 | > 200 | 
13 | COC(=O)c1c[nH]c(=O)[nH]c1=O | > 200 | > 200 | 
14 | Clc1cc2nc(C3CCCCO3)[nH]c2cc1Cl (stereo not given) | > 200 | 10.2 | 
15 | COC(=O)C1CCC(=O)N1C(c1ccc(OC)cc1)c1ccc2c(c1)OCO2 (stereo not given) | > 200 | 11.5 | 
16 | COC(=O)c1c2c(cc3c1CC1(Cc4ccccc4C1=O)C3)CCC2 (stereo not given) | > 200 | 13.5 | 
17 | CCCCCCCCCCCCCCCCCC(=O)NCC(COP(=O)([O-])OCC[N+](C)(C)C)OCC (stereo not given) |  |  | inactive
18 | CC(C)(C)C1COP(=S)(C(C)(C)C)OC1 (stereo not given) | > 14.5 | > 14.5 | 
19 | COc1cc(N)c2c(c1)SCCC(=O)N2 | > 200 | > 200 | 
20 | O=[N+]([O-])c1ccc(C2=Nc3ccccc3N=C(c3ccccc3O)C2)cc1 | > 200 | > 200 | 
21 | Cc1cc(N=Nc2ccc(NC(=O)c3ccc(NC(=O)c4ccccc4)cc3)c3ccc(S(=O)(=O)O)cc23)ccc1N=Nc1ccc2c(O)cc(S(=O)(=O)O)cc2c1 | > 50.1 | > 50.1 | 
22 | O=C(O)C1CCCCN1c1ccccc1[N+](=O)[O-] (stereo not given) |  |  | inactive
23 | NC(=S)NN=C(C1CC1)C1CC1 | > 200 | > 200 | 

Row | SMILES | EC50 [µM] | IC50 [µM] | outcome
24 | C/C(=C\c1ccccc1)C(O)C(=O)c1nc2ccc([N+](=O)[O-])cc2[nH]c1=O (stereo not given) |  |  | inactive
25 | CCC(Oc1c2ccoc2c(OC)c2oc(=O)cc(O)c12)C(=O)O (stereo not given) | > 269 | > 269 | 
26 | CCCCNc1cc2oc(=O)cc(C)c2cc1N | > 155 | 44.7 | 
27 | N=C(CN1CCCCC1)N1CCCCC1 | > 200 | > 200 | 
28 | CC(=O)OC1C=C(C=O)C(O)(C=O)C2(C)CCCC(C)(C)C12 (stereo not given) | > 200 | 8.13 | 
29 | C/C(O)=C(/C=NC(=S)C(N)=S)C(=O)Nc1ccccc1 | > 200 | 102 | 
30 | O=C(c1ccc(Cl)cc1)N(C(=S)OCc1ccccn1)c1ccccc1 | > 200 | 83.2 | 
31 | Cc1cc(=O)oc2cc(O)c(O)cc12 | > 200 | 27.5 | 
32 | CCOC(=O)C12c3[nH]c4ccccc4c3CCN1CC1=NOC(=O)C12 (stereo not given) | > 132 | > 132 | 
33 | CCOC(=O)/C(=C\c1ccc(CO)o1)P(=O)(OCC)OCC | > 200 | 30.9 | 
34 | COc1cc2c(cc1OC)C1[C@@H](c3ccccc3)OCN1CC2 (stereo not given in full) |  |  | inactive
35 | COC(OC)c1cccc2c1C(=O)CCC1(O)c3ccccc3C1C2 (stereo not given) | > 155 | 138 | 
36 | CCCCOC/N=C(/N)NC#N | > 525 | > 525 | 
37 | NC(=O)OCC(O)COc1ccc(Cl)cc1 (stereo not given) | > 200 | > 200 | 
38 | CN1CCCC1CCNc1nc(Nc2ccc(Cl)c(Cl)c2)nc2ccc(Cl)cc12 (stereo not given) | > 19.1 | 3.24 | 
39 | O=C(NNc1nc2ccccc2n2cccc12)Nc1ccc(Br)cn1 | > 200 | 46.8 | 
40 | Cc1cc(C)nc(NS(=O)(=O)c2ccc(NC(=O)c3cccc4c(=O)c5ccccc5[nH]c34)cc2)n1 |  |  | inactive
41 | C/C(=N\NS(=O)(=O)c1ccc(C)cc1)C(CN1CCCCC1)C(c1ccccc1)c1c(O)c2ccccc2oc1=O (stereo not given) | > 58.9 | 49 | 
42 | O=C(O)/C=C\C(=O)NCCCNC(=O)/C=C\C(=O)O | > 933 | > 933 | 
43 | COC(=O)CCn1c(N)nc2c1c(=O)n(C)c(=O)n2C | > 468 | > 468 | 
44 | CC1=Nc2ccccc2SC2(C1)C(C1COC(C)(C)O1)OC1OC(C)(C)OC12 (stereo not given) | > 74.1 | 63.1 | 
45 | CN=C(NC)N(C)c1nc(=[N+](C)C)ss1 |  |  | inactive
46 | N/C(=N\C(O)C(Cl)(Cl)Cl)SCNC(=O)NCS/C(N)=N/C(O)C(Cl)(Cl)Cl (stereo not given) | > 158 | 126 | 

Row | SMILES | EC50 [µM] | IC50 [µM] | outcome
47 | Cc1cccc(Nc2ccccc2C(=O)O)c1C | > 200 | 129 | 
48 | COc1ccc2cc(C(=O)Nc3ccc(O)c(C(=O)O)c3)ccc2c1OC | > 200 | > 200 | 
49 | CC1(C)Oc2cc(OCc3ccccc3)ccc2C2Oc3cc(OCc4ccccc4)c(O)cc3C21 (stereo not given) | > 200 | 79.4 | 
50 | Cn1c2ccccc2c(=NNc2cccc(C(=O)O)c2)c2ccccc21 | > 200 | 3.8 | 
51 | c1ccc2c(c1)ncn2C1CCCCO1 (stereo not given) | > 200 | > 200 | 
52 | C=CCC1(O)C(CO[Si](C)(C)C(C)(C)C)OC(n2ccc(=O)[nH]c2=O)C1O[Si](C)(C)C(C)(C)C (stereo not given) | > 200 | 10.2 | 
53 | CN1c2ccccc2C(=O)Nc2cnc(Cl)nc21 | > 200 | > 200 | 
54 | CC1OC(OC2C(O[C@H]3CC[C@@]4(C)C(=CC[C@H]5[C@@H]6C[C@@H]7O[C@]8(CC[C@H](C)CN8)[C@@H](C)[C@@H]7[C@@]6(C)CC[C@@H]54)C3)OC(CO)C(O)C2OC2OC(CO)C(O)C(O)C2O)C(O)C(O)C1O (stereo not given in full) |  |  | inactive
55 | CN(C)c1cc[n+](-c2c([O-])c3ccccc3n(-c3ccccc3)c2=O)cc1 | > 200 | 195 | 
56 | C=CC1=C(C)C(/C=c2\[nH]/c(=C/c3[nH]c(CC4NC(=O)C(C)/C4=C\C)c(C)c3CCC(=O)O)c(CC(=O)O)c2C)=NC1=O (stereo not given) | > 2690 | > 2690 | 
57 | COC(=O)c1ccc(NCc2cc(O)ccc2O)cc1O | > 200 | 10.5 | 
58 | O=C1OCCC1C(O)C1c2ccccc2-c2ccccc21 (stereo not given) | > 339 | > 339 | 
59 | O=C(/C=C/c1ccc(Cl)cc1)c1ccccc1 | > 56.2 | 11.2 | 
60 | NC(=O)CSSCC(N)=O | 21.4 | 70.8 | 
61 | Cc1ccc2c(c1)C(=O)/C(=C\c1ccc(Cl)cc1)CCS2(=O)=O | > 200 | 1.66 | 
62 | CCCC1C(C#N)(C#N)C1(C#N)C#N | > 200 | 2.69 | 
63 | CCOC(=O)/C(C)=C(/O)C(=O)OCC | 214 | 1120 | 
64 | N#Cc1nc(CN2C(=O)c3ccccc3C2=O)oc1N | 5.89 | > 200 | 
65 | CN(C)CC/C(=N\Nc1ccccc1)c1ccccc1 |  |  | inactive
66 | COC(=O)[C@@H]1C[C@@H](OS(=O)(=O)c2ccc(C)cc2)CN1S(=O)(=O)c1ccc(C)cc1 | > 200 | 33.9 | 
67 | CC(=O)Oc1ccc(OC(Oc2ccccc2)c2ccccc2)cc1 (stereo not given) | > 89.1 | 60.3 | 
68 | O=C(O)C(C(C(=O)O)P(=O)(O)O)P(=O)(O)O (stereo not given) | > 200 | > 200 | 
69 | COc1c(F)c(F)c(/C(O)=C\c2nc3ccccc3[nH]c2=O)c(F)c1F | > 200 | 195 | 

Row | SMILES | EC50 [µM] | IC50 [µM] | outcome
70 | BrCC[N+]12CCCN1CCC2 |  |  | inactive
71 | CCOc1ccc(NC(=S)/N=C/c2c(O)cc(C)oc2=O)cc1 |  |  | inactive
72 | O=C(O)CCc1ccc2c(c1)C(=O)CC2 | > 200 | > 200 | 
73 | CNC1=C2NC(=O)/C(C)=C\C=C\C(C)C(O)C(C)C(O)C(C)C(OC(C)=O)C(C)C(OC)/C=C/OC3(C)Oc4c(C)c(O)c(c(c4C3=O)C1=O)C2=O (stereo not given) | > 200 | 3.8 | 
74 | CCN(CC)C1=CC(=O)c2nc(C)c(C)nc2C1=O |  |  | inactive
75 | O=C(CC(=O)C(=O)CC(=O)OCc1ccccc1)OCc1ccccc1 | > 105 | 89.1 | 
76 | COc1ccc2c3c(n(Cc4ccccc4)c(=O)c2c1)-c1cc(OC)c(OC)cc1C3C (stereo not given) | > 6.31 | > 6.31 | 
77 | COc1cc2cnc3c4cc(O)ccc4ccc3c2cc1OC | > 85.1 | 44.7 | 
78 | Nc1ccccc1S(=O)c1ccccc1 (stereo not given) | > 275 | > 275 | 
79 | N#C/C(=C\c1c(Cl)cccc1Cl)c1nc(-c2ccc(Cl)cc2)cs1 | > 200 | 72.4 | 
80 | NC1=NN(c2ccccc2)C(=O)C1C(=O)C(=O)Nc1nccs1 (stereo not given) | > 79.4 | > 79.4 | 
81 | O=C(CSc1nnc(Cc2ccccc2)o1)Nc1ccccc1 | > 209 | > 209 | 
82 | Cc1ccccc1OP(=S)(Oc1ccccc1C)Oc1ccccc1C | > 200 | 35.5 | 
83 | COC(=O)CC1NC(=O)C1C(C)O[Si](C)(C)C(C)(C)C (stereo not given) | > 603 | 288 | 
84 | C=C1C(=O)[C@@]23C(O)C[C@@H]4C(C)(C)CCC(O)C4(COC(C)=O)[C@@H]2CC[C@@H]1[C@H]3O (stereo not given in full) | > 631 | 0.372 | 
85 | CC1=C2NCN(C)N=C2C(C#N)(C#N)C1(C#N)C#N | > 200 | 10.5 | 
86 | NC(=O)C12C(=O)NC(=O)C1(C(=O)O)C21CCCC1 (stereo not given) | > 200 | > 200 | 
87 | O=c1c2c3c(sc2nc2n1N=CN(c1ccccc1)C2)CCCC3 | > 200 | > 200 | 
88 | COc1ccc(C(OCC2OC3(COC(c4ccccc4)(c4ccc(OC)cc4)c4ccc(OC)cc4)C(Oc4nc(=O)ccn43)C2O)(c2ccccc2)c2ccc(OC)cc2)cc1 (stereo not given) | > 100 | > 100 | 
89 | FC(F)(Oc1ccccc1)c1nc2ccccc2o1 | > 200 | 64.6 | 
